Results published in patent US20090022803A1, “Oral Formulations For Delivery of Catecholic Butanes Including Ndga Compounds” (priority 2005, published 2009).

What was measured:
[1] = 40 mg/mL M4N/PEG 300 stability, RP-HPLC analysis; type: physicochemical; settings: for M4N: 40 mg/mL M4N/PEG 300
Experimental: The stability of 40 mg/mL M4N dissolved in 100% PEG 300 was evaluated up to 24 hours incubation at 30° C., 45° C. and 60° C. A stock 40 mg/mL M4N in PEG 300 was prepared at 60° C., following the procedure set forth in Example 18. Subsequently, aliquots were removed and incubated at the appropriate temperature. Samples were rotated at 450 rpm during the entire course of incubation. Visual observations and RP-HPLC data were collected throughout. […] The formation of crystals coincided with a loss of soluble M4N (Table 30). The 40 mg/mL M4N/PEG 300 samples incubated at 45° C. and 60° C. were stable after 24 hours incubation as assessed by visual observations and RP-HPLC analysis (Tables 29 and 30).

[2] = Oral fed/fasted IV/oral pharmacokinetic comparison of M4N formulations, single 75 mg/kg dose; settings: dogs, single 75 mg/kg oral or IV
[3] = Oral (gavage) repeated dose pharmacokinetic study of M4N in ten excipient formulations; settings: rat, in vivo, 500 mg/kg
Experimental: The purpose of this study was to provide information on pharmacokinetics of a 500 mg/kg dose of M4N in ten different excipient formulations. […] Crl:(CD)SD male and female rats were assigned to ten dosage groups, five rats per sex per group. Samples were prepared having carriers as follows that were administered to the following groups of subjects:
Each formulation of M4N was administered orally via gavage on three occasions. The concentration of the M4N was 60 mg/mL administered at a dosage volume 8.33 mL/kg, based on the most recent body weight. The rats were given the first dose (day 1 of study) after being fasted overnight followed by a 72 hour washout (recovery) period. On day 5 of study (DS 5), the second dose of test article was administered to non-fasted rats followed by a one week washout (recovery) period. On DS 6, the rats were placed on a high fat diet (approximately 10% fat content versus approximately 5% in a standard diet). […] These observations were also recorded once daily on non dosing days and during the post dosage period. Body weights were recorded at least weekly during the acclimation period, daily during the dosage and at sacrifice terminal weight. Feed consumption values were recorded weekly during the dosage period and at sacrifice (feed left value). […] The time of each blood collection was recorded in the raw data. […]

## COc1ccc(C[C@@H](C)[C@@H](C)Cc2ccc(OC)c(OC)c2)cc1OC [Formulation M4N, meso-1,4-bis(3,4-dimethoxyphenyl)-2,3-dimethylbutane]
[1]; 40 mg/mL M4N/PEG 300, 30° C., 45° C. and 60° C.
  amount or types of impurities peaks: No changes
[1]; 40 mg/mL M4N/PEG 300, 24 hours at 45° C.
  stability by visual observations and RP-HPLC analysis: stable
[1]; 40 mg/mL M4N/PEG 300, 24 hours at 60° C.
  stability by visual observations and RP-HPLC analysis: stable
[1]; 30° C., 0 hours
  M4N: 39.5 mg/mL
[1]; 30° C., 2 hours
  M4N: 40.8 mg/mL
[1]; 30° C., 6 hours
  M4N: 40.6 mg/mL
[1]; 30° C., 24 hours
  M4N: 37.4 mg/mL
[1]; 45° C., 2 hours
  M4N: 40.4 mg/mL
[1]; 45° C., 6 hours
  M4N: 39.8 mg/mL
[1]; 45° C., 24 hours
  M4N: 40.6 mg/mL
[1]; 60° C., 2 hours
  M4N: 39.1 mg/mL
[1]; 60° C., 6 hours
  M4N: 39.2 mg/mL
[1]; 60° C., 24 hours
  M4N: 39.2 mg/mL
[2]
  survival: All animals survived
[3]
  Blood levels on high fat diet versus standard diet or fasting: always higher
